# Active and inactive are the calls of the source. The calls are words filed in the database; no cut-off is given here.
# Assays:
# [1] = test system: SK-HEP1; experiment: Antiproliferative activity against human SK-HEP1 cells cultured as 2D cells assessed as inhibition of cell growth at 10 uM incubated for 72 hrs by CCK-8 assay; format: functional, cell-based
# [2] = test system: HCCLM3; experiment: Antiproliferative activity against human HCCLM3 cells cultured as 2D cells assessed as inhibition of cell growth at 10 uM incubated for 72 hrs by CCK-8 assay; format: functional, cell-based
# [3] = test system: SK-HEP1; experiment: Antiproliferative activity against human SK-HEP1 cells cultured as 3D cells assessed as inhibition of cell growth at 10 uM incubated for 72 hrs by CellTiter-Lumi assay; format: functional, cell-based
# [4] = test system: HCCLM3; experiment: Antiproliferative activity against human HCCLM3 cells cultured as 3D cells assessed as inhibition of cell growth at 10 uM incubated for 72 hrs by CellTiter-Lumi assay; format: functional, cell-based
# [5] = test system: SK-HEP1; experiment: Inhibition of cell migration in human SK-HEP1 cells at 10 uM incubated for 24 hrs by wound healing assay; format: functional, cell-based
# [6] = test system: SK-HEP1; experiment: Inhibition of cell migration in human SK-HEP1 cells at 10 uM incubated for 24 hrs by transwell assay; format: functional, cell-based
# [7] = test system: HCCLM3; experiment: Inhibition of cell migration in human HCCLM3 cells at 10 uM incubated for 24 hrs by transwell assay; format: functional, cell-based
# [8] = species: Homo sapiens; experiment: Inhibition of recombinant human TRBP/recombinant human Dicer protein protein interaction at 25 uM by indirect-competition-ELISA
# [9] = test system: SK-HEP1; experiment: Antiproliferative activity against TARBP2-knockout human SK-HEP1 cells cultured as 3D cells assessed as inhibition of cell growth at 25 uM incubated for 72 hrs by CellTiter-Lumi assay; format: functional, cell-based
# [10] = test system: HCCLM3; experiment: Antiproliferative activity against TARBP2-knockout human HCCLM3 cells cultured as 3D cells assessed as inhibition of cell growth at 25 uM incubated for 72 hrs by CellTiter-Lumi assay; format: functional, cell-based
# [11] = test system: SK-HEP1; experiment: Antiproliferative activity against human SK-HEP1 cells cultured as 3D cells assessed as inhibition of cell growth at 25 uM incubated for 72 hrs by CellTiter-Lumi assay; format: functional, cell-based
# [12] = test system: HCCLM3; experiment: Antiproliferative activity against human HCCLM3 cells cultured as 3D cells assessed as inhibition of cell growth at 25 uM incubated for 72 hrs by CellTiter-Lumi assay; format: functional, cell-based
# [13] = test system: HCCLM3; experiment: Inhibition of cell migration in human HCCLM3 cells incubated for 24 hrs by transwell assay; format: functional, cell-based
# [14] = test system: SK-HEP1; experiment: Inhibition of cell migration in TARBP2-knockout human SK-HEP1 cells at 1 to 25 uM incubated for 24 hrs by transwell assay; format: functional, cell-based; conditions: dose 1-25 µM
# [15] = test system: HCCLM3; experiment: Inhibition of cell migration in TARBP2-knockout human HCCLM3 cells at 1 to 25 uM incubated for 24 hrs by transwell assay; format: functional, cell-based; conditions: dose 1-25 µM
# [16] = test system: HCCLM3; experiment: Antiproliferative activity against human HCCLM3 cells assessed as upregulation of SMAD7 expression incubated for 24 hrs by Western blotting analysis; format: functional, cell-based
# [17] = test system: HCCLM3; experiment: Antiproliferative activity against human HCCLM3 cells assessed as downregulation of SMAD3 phosphorylation incubated for 24 hrs by Western blotting analysis; format: functional, cell-based
# [18] = Acute toxicity in Kunming mouse assessed as animal death at 100 mg/kg,ip administration measured after 14 days; format: organism-based; conditions: in vivo, 336 h, time 14 day
# [19] = Acute toxicity in Kunming mouse assessed as body weight loss at 100 mg/kg,ip administration measured after 14 days; format: organism-based; conditions: in vivo, 336 h, time 14 day
# [20] = Acute toxicity in Kunming mouse assessed as effect on AST level in liver at 100 mg/kg,ip administration measured after 14 days; format: organism-based; conditions: in vivo, 336 h, time 14 day
# [21] = Acute toxicity in Kunming mouse assessed as effect on ALT level in liver at 100 mg/kg,ip administration measured after 14 days; format: organism-based; conditions: in vivo, 336 h, time 14 day
# [22] = Acute toxicity in Kunming mouse assessed as effect on ALB level in liver at 100 mg/kg,ip administration measured after 14 days; format: organism-based; conditions: in vivo, 336 h, time 14 day
# [23] = Acute toxicity in Kunming mouse assessed as effect on total bilirubin level in liver at 100 mg/kg,ip administration measured after 14 days; format: organism-based; conditions: in vivo, 336 h, time 14 day
# [24] = Acute toxicity in Kunming mouse assessed as effect on urea level in kidney at 100 mg/kg,ip administration measured after 14 days; format: organism-based; conditions: in vivo, 336 h, time 14 day
# [25] = Acute toxicity in Kunming mouse assessed as effect on creatinine level in kidney at 100 mg/kg,ip administration measured after 14 days; format: organism-based; conditions: in vivo, 336 h, time 14 day
# [26] = Acute toxicity in Kunming mouse assessed as effect on uric acid level in kidney at 100 mg/kg,ip administration measured after 14 days; format: organism-based; conditions: in vivo, 336 h, time 14 day
# [27] = Acute toxicity in Kunming mouse assessed as effect on creatine kinase level in heart at 100 mg/kg,ip administration measured after 14 days; format: organism-based; conditions: in vivo, 336 h, time 14 day
# [28] = Acute toxicity in Kunming mouse assessed as effect on lactate dehydrogenase level in heart at 100 mg/kg,ip administration measured after 14 days; format: organism-based; conditions: in vivo, 336 h, time 14 day
# [29] = Acute toxicity in Kunming mouse assessed as pathological change in heart at 100 mg/kg,ip administration measured after 14 days by hematoxylin and eosin staining based microscopic analysis; format: organism-based; conditions: in vivo, 336 h, time 14 day
# [30] = Acute toxicity in Kunming mouse assessed as pathological change in spleen at 100 mg/kg,ip administration measured after 14 days by hematoxylin and eosin staining based microscopic analysis; format: organism-based; conditions: in vivo, 336 h, time 14 day
# [31] = Acute toxicity in Kunming mouse assessed as pathological change in lung at 100 mg/kg,ip administration measured after 14 days by hematoxylin and eosin staining based microscopic analysis; format: organism-based; conditions: in vivo, 336 h, time 14 day
# [32] = Half life in Sprague-Dawley rat at 25 mg/kg,po administration by LC-MS/MS analysis; format: ADME, organism-based; conditions: in vivo
# [33] = Tmax in Sprague-Dawley rat at 10 mg/kg,iv administration by LC-MS/MS analysis; format: ADME, organism-based; conditions: in vivo
# [34] = Tmax in Sprague-Dawley rat at 25 mg/kg,po administration by LC-MS/MS analysis; format: ADME, organism-based; conditions: in vivo
# [35] = Cmax in Sprague-Dawley rat at 10 mg/kg,iv administration by LC-MS/MS analysis; format: ADME, organism-based; conditions: in vivo
# [36] = AUC (0 to t) in Sprague-Dawley rat at 10 mg/kg,iv administration by LC-MS/MS analysis; format: ADME, organism-based; conditions: in vivo
# [37] = AUC (0 to t) in Sprague-Dawley rat at 25 mg/kg,po administration by LC-MS/MS analysis; format: ADME, organism-based; conditions: in vivo
# [38] = AUC (0 to infinity) in Sprague-Dawley rat at 10 mg/kg,iv administration by LC-MS/MS analysis; format: ADME, organism-based; conditions: in vivo
# [39] = AUC (0 to infinity) in Sprague-Dawley rat at 25 mg/kg,po administration by LC-MS/MS analysis; format: ADME, organism-based; conditions: in vivo
# [40] = MRT (0 to t) in Sprague-Dawley rat at 10 mg/kg,iv administration by LC-MS/MS analysis; format: ADME, organism-based; conditions: in vivo
# [41] = MRT (0 to infinity) in Sprague-Dawley rat at 10 mg/kg,iv administration by LC-MS/MS analysis; format: ADME, organism-based; conditions: in vivo
# [42] = MRT (0 to infinity) in Sprague-Dawley rat at 25 mg/kg,po administration by LC-MS/MS analysis; format: ADME, organism-based; conditions: in vivo
# [43] = Clearance in Sprague-Dawley rat at 10 mg/kg,iv administration by LC-MS/MS analysis; format: ADME, organism-based; conditions: in vivo
# [44] = Volume of distribution at steady state in Sprague-Dawley rat at 10 mg/kg,iv administration by LC-MS/MS analysis; format: ADME, organism-based; conditions: in vivo, read-out: Vdss
smiles,measurement,setting,value
CCOc1ccc(-c2nc(C)c(C(=O)O)s2)cc1,Activity,[1],inactive
same,Activity,[2],inactive
same,Activity,[3],Active
same,Activity,[4],Active
same,inhibition,[5],Active
same,inhibition,[6],Active
same,inhibition,[7],Active
same,inhibition,[8],Active
same,Activity,[9],inactive
same,Activity,[10],inactive
same,Activity,[11],Active
same,Activity,[12],Active
same,inhibition,[13],Dose-dependent-effect
same,inhibition,[14],inactive
same,inhibition,[15],inactive
same,Activity,[16],Dose-dependent-effect
same,Activity,[17],Dose-dependent-effect
same,Activity,[18],Non-toxic
same,Activity,[19],Non-toxic
same,Activity,[20],Non-toxic
same,Activity,[21],Non-toxic
same,Activity,[22],Non-toxic
same,Activity,[23],Non-toxic
same,Activity,[24],Non-toxic
same,Activity,[25],Non-toxic
same,Activity,[26],Non-toxic
same,Activity,[27],Non-toxic
same,Activity,[28],Non-toxic
same,Activity,[29],Non-toxic
same,Activity,[30],Non-toxic
same,Activity,[31],Non-toxic
same,half-life,[32],162 min
same,Tmax,[33],6 min
same,Tmax,[34],18 min
same,Cmax,[35],34900 ng/mL
same,AUC(0-t),[36],9730 ng·h/mL
same,AUC(0-t),[37],2670 ng·h/mL
same,AUC(0-inf),[38],9740 ng·h/mL
same,AUC(0-inf),[39],3080 ng·h/mL
same,MRT last,[40],6 min
same,MRT inf,[41],12 min
same,MRT inf,[42],234 min
same,clearance,[43],17.1 mL/min/kg
same,Vd,[44],0.161 L/kg

# Reference: ChEMBL document CHEMBL6087465, “Design, Synthesis, and Antitumor Activity Evaluation of 2-Phenylthiazole-5-Carboxylic Acid Derivatives Targeting Transactivation Response RNA-Binding Protein 2” (J Med Chem, 2025)
